Laboratory results taken from article PMC12410356 (International Journal for Parasitology: Drugs and Drug …, 2025).

Experiments:
[1] = test system: E. multilocularis metacestode vesicles; experiment: Metacestode vesicle viability assay (ATP, CellTiter-Glo); type: cell-based, Echinococcus multilocularis; settings: 10 μM, 12 days
Protocol: Viability was assessed after 12 days using the same metacestode vesicles as for the PGI release assay. Triton X-100 was added to each well to a final concentration of 0.1 %. Subsequently the metacestode vesicles were broken mechanically and 50 μL of the supernatant was mixed with 50 μL of CellTiter-Glo® buffer (Promega, Dübendorf, Switzerland). Measurements were performed on a HIDEX Sense microplate reader.

[2] = test system: E. multilocularis metacestode vesicles; experiment: Phosphoglucose isomerase (PGI) release assay (damage-marker release) on metacestode vesicles; type: cell-based, Echinococcus multilocularis; settings: 10 μM; for PGI d5 (relative PGI release): 5 days; for PGI d12 (relative PGI release): 12 days
Protocol: In order to quantify the drug-induced damage on whole metacestode vesicles, phosphoglucose isomerase (PGI) assay was performed as described previously ([Stadelmann et al., 2010]) with few adaptations published recently ([Kaethner et al., 2023]). In short, 8 to 12 weeks-old metacestode vesicles were purified using 2 % sucrose with subsequent washes in PBS. Metacestode vesicles were diluted in two volumes of DMEM without phenol red containing penicillin (100 U/mL) and streptomycin (100 μg/mL). […] 0.1 % DMSO was used as a negative solvent control and 0.1 % Triton X-100 was used as a positive total damage control. Metacestode vesicles were incubated under a humid, 5 % CO2 atmosphere at 37 °C. After five and twelve days, supernatant was taken and pictures were made using a Nikon SMZ18 stereo microscope (Nikon, Basel, Switzerland) at 7.5 × magnification. PGI activity in the supernatants was measured on a HIDEX Sense microplate reader (Hidex, Turku, Finland). The corresponding values of the DMSO controls were subtracted from the values of the compounds and then PGI activity was calculated relative to 0.1 % Triton X-100. […] IC50 values were calculated applying the 3 parameter Weibull type 1 in R for each of the three independent experiments ([Ritler et al., 2020]).

[3] = overview screen, singlets, relative to DMSO control
[4] = overview screen, singlets, relative to 0.1 % Triton X-100, DMSO subtracted
[5] = confirmation screen, triplicates, mean

Compound | Viability d12 (relative viability) [1, 3] | PGI d5 (relative PGI release) [2, 4] | PGI d12 (relative PGI release) [2, 4] | Viability d12 (relative viability) [1, 5] | PGI d5 (relative PGI release) [2, 5] | PGI d12 (relative PGI release) [2, 5]
CSc1ccc2c(c1)C(N1CCN(C)CC1)Cc1ccccc1S2 (stereo not drawn) [MMV002505] | 82.0463% | 0.4968% | -0.02837% | – | – | –
O=C(NC(=O)N1CCCc2ccccc21)c1cccc(Cl)c1 [MMV1782351] | 118.649% | -2.457% | -24.682% | – | – | –
CN(C)CCNC(=O)c1cccc2cccnc12 [MMV811071] | 78.9047% | 0.8254% | 33.0305% | – | – | –
CCc1cc(Nc2cc(=O)n(CCN3CCN(C(=O)c4ccccc4)CC3)c(=O)[nH]2)ccc1C [MMV1634383] | 104.622% | 0.8629% | 52.997% | – | – | –
COc1ccccc1NC(=O)c1ccccc1Sc1ccc([N+](=O)[O-])cc1 [MMV1580484] | 125.738% | -0.1612% | 8.961% | – | – | –
CCc1nc2ccc(Cl)cn2c1C(=O)NCc1ccc(N2CCC(c3ccc(OC(F)(F)F)cc3)CC2)cc1 [MMV687696] | 83.8288% | -3.859% | -6.627% | – | – | –
CCCCOC(=O)Nc1cc2nc(C3CCCCC3)[nH]c2cc1N(CC)CC [MMV1578842] | 6.68% | 1.645% | 57.0254% | 57.98% | -0.74% | 0.24%
COC1CC2CCC(C)C(O)(O2)C(=O)C(=O)N2CCCCC2C(=O)OC(C(C)CC2CCC(OCCO)C(OC)C2)CC(=O)C(C)/C=C(\C)C(O)C(OC)C(=O)C(C)CC(C)/C=C/C=C/C=C/1C (stereo not drawn) [MMV639951] | 85.7507% | -0.3944% | -20.0049% | – | – | –
Cl.Nc1nc(-c2ccccc2)nc2c1ncn2[C@@H]1O[C@H](COS(=O)(=O)NC(=O)c2ccccc2O)[C@@H](O)[C@H]1O [MMV1582488] | 117.234% | -1.401% | 11.4821% | – | – | –
Clc1cc2nc(C3CCNCC3)n(Cc3ccc(CNCCc4c[nH]cn4)cc3)c2cc1Cl [MMV1580842] | 102.952% | -1.296% | -12.8721% | – | – | –
Cn1c2ccccc2c(=O)c2c(O)cccc21 [MMV1580500] | 90.8954% | 1.098% | -0.5737% | – | – | –
O=C(Nc1ccccc1C(=O)O)c1cccc(Oc2ccccc2)c1 [MMV1579784] | 41.5815% | 0.07516% | 11.2094% | – | – | –
C[C@H]1[C@@H](c2cccc(C(F)(F)F)c2)OC(=O)N1C(=O)NCc1cncc2ccccc12 [MMV1593533] | 85.501% | -2.428% | -25.2459% | – | – | –
Cc1cc(-c2ccccc2)c(C(=O)C(=O)Nc2ccc(N3CCN(c4ncc(F)cn4)CC3)cc2)n1C [MMV1782354] | 36.0707% | 1.821% | -11.1929% | – | – | –
O=C(Nc1ccc(Cl)c(C(F)(F)F)c1)C(CCCl)C(=O)Nc1ccc(Cl)c(C(F)(F)F)c1 [MMV1580840] | 11.8566% | 14.7528% | 31.1069% | 81.80% | -0.17% | 0.36%
CC[C@@H]1C(=O)OC[C@@H]1Cc1cncn1C.Cl [MMV002516] | 84.666% | -2.121% | -7.265% | – | – | –
CC1(C)CC(NC(=O)C(=O)Nc2ccc(Cl)cc2)CC(C)(C)N1 [MMV1580501] | 102.317% | 0.3852% | 0.4399% | – | – | –
